# In US5843948A, “Piperazinophenyl- and piperazinophenyloxycarboxylic acid derivatives, and processes and intermediates for their preparation and pharmaceutical compositions comprising them” (Solvay Pharmaceuticals GmbH, priority 1996, dated 1998):
# Target: T1, purified GP IIb/IIIa fibrinogen receptor from human blood platelets (Homo sapiens, UniProt P05106+P08514)
# T1 construct: purified GP IIb/IIIa fibrinogen receptor from human blood platelets; from tissue; host or cells: human blood platelets
# T1 sequence (P08514 32-887 limits assumed): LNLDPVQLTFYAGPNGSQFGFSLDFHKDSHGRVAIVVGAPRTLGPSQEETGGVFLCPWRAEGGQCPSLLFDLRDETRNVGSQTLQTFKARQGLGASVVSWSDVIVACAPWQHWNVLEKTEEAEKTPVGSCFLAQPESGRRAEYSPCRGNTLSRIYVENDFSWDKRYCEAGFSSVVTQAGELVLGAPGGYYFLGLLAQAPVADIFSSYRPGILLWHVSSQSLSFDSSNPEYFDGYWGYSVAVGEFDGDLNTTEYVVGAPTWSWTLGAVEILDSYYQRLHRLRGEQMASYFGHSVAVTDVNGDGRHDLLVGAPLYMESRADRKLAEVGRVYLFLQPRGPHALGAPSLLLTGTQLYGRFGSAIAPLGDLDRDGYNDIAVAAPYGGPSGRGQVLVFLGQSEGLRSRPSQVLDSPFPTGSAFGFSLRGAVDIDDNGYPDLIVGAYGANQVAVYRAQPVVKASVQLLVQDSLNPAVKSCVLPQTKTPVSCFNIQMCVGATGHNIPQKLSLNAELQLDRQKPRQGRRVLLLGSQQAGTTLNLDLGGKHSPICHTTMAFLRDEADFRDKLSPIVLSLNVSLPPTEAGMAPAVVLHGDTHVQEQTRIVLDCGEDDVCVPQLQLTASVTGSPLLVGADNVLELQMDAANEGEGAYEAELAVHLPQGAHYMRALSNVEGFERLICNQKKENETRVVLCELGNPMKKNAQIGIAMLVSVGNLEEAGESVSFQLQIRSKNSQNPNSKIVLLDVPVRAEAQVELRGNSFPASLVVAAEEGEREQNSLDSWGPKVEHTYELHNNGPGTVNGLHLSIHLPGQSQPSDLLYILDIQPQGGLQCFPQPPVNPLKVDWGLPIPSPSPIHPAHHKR
# T1 sequence (P08514 891-1039 limits assumed): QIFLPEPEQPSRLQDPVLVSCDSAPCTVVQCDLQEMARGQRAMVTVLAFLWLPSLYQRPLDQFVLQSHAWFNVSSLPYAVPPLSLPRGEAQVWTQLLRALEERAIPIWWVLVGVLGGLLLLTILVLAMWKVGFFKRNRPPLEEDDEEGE
# T1 sequence (P05106 27-788): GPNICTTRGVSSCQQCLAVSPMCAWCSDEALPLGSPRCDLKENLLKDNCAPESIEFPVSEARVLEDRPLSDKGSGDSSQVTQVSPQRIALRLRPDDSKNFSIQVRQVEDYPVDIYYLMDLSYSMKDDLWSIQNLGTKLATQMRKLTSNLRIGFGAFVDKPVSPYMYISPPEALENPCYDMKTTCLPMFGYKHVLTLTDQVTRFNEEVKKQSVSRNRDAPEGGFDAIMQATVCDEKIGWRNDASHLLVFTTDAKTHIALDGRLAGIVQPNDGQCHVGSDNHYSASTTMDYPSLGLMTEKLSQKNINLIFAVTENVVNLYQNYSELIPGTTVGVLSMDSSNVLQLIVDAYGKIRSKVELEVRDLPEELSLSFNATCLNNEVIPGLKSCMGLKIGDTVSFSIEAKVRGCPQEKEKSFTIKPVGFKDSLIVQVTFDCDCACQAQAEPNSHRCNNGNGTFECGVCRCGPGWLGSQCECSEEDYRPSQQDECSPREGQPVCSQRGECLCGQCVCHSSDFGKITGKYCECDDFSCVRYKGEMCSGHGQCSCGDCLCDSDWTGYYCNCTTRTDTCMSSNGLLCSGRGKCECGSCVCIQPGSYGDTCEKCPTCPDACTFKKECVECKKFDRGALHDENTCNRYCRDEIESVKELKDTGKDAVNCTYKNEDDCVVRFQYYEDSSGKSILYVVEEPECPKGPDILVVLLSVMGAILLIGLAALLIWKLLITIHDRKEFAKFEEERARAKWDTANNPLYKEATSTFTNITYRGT
# Experiment: Inhibition of fibrinogen binding to GP IIb/IIIa, solid phase enzyme immunoassay of the ELISA type (Kouns et al.)
# Conditions: purified human plasma fibrinogen 20 μg/ml, 37° C., 2 hours, read-out: pIC50 (negative common logarithm of the IC50 for inhibition of the specific fibrinogen binding of GP IIb/IIIa) (converted)
# Protocol: The inhibitory action of the substances of the formula I on the fibrinogen binding to the fibrinogen receptor of the blood platelets, the GP IIb/IIIa, was detected in a solid phase enzyme immunoassay of the ELISA type ("Enzyme-Linked Immunosorbent Assay") according to the method described by Kouns et al. (Blood 80 (1992) 2539-2547).
# A solution of purified GP IIb/IIIa fibrinogen receptor from human blood platelets (1 μg/ml in phosphate-buffered physiological saline solution, pH 7.4) was applied in portions of 100 μl/sample position to a microtitre plate and allowed to stand at 4° C. for 18 hours. Excess receptor reagent was washed off by a standard wash (3 times 350 μl of wash buffer solution/sample position: 0.01% (v/v) Tween 80 in phosphate-buffered physiological saline solution) and unoccupied residual protein binding sites were occupied by a blocking reagent [300 μl/sample position of an aqueous receptor buffer solution: 20 mmole/liter of tris(hydroxymethyl)aminomethane, 150 mmole/liter of NaCl, 1 mmole/liter of MgCl2, 1 mmole/liter of CaCl2; treated with 5% (w/v) bovine serum albumin (BSA)]. The mixture was incubated at 37° C. for 2 hours and excess blocking reagent was removed.
# Purified human plasma fibrinogen [100 μl/sample position of a 20 μg/ml solution in test buffer. Test buffer=receptor buffer mixed with 1% (w/v) BSA] was then added together with the test substance dissolved therein (concentration dependent on the test substance) and incubated at 37° C. for 2 hours. Unbound fibrinogen was removed by standard washing and the incubation was continued for a further hour at room temperature after addition of biotinylated rabbit antibodies against human fibrinogen (100 μl/sample position in optimum use dilution, dissolved in test buffer) . After a further standard wash, horseradish peroxidase-conjugated streptavidin (1:2000, in suitable dilution in test buffer) was added, and the mixture was incubated again at room temperature for one hour, followed by a further standard wash.
# Finally, the peroxidase substrate 2,2'-azinodi-(3-ethylbenzothiazolinesulfonate) (abbreviated below as ABTS), (100 μl/sample position of a solution of 0.4 g/liter of ABTS in 0.1 mole/liter of citric acid buffer, adjusted to pH 4 using 0.4 mole/liter of NaH2 PO4 ·2 H2 O), treated with 0.003% (w/v) hydrogen peroxide, was added and the extinction of the mixture was measured at 405 nm at 5 minute intervals for twenty minutes.
# The peroxidase activity was determined from the measurements as the increase in the extinction with time. It was used to calculate the total fibrinogen binding and also the non-specific fibrinogen binding. The non-specific fibrinogen binding was determined without addition of the GP IIb/IIIa. The specific fibrinogen binding could be calculated from these two values. The effect of the test substances was expressed in IC50 values, which were obtained by interpolation from concentration-dependent measuring curves. The IC50 is that concentration in μmole/liter at which a test substance inhibits the specific fibrinogen binding of GP IIb/IIIa by 50%. The following Table 1 presents the IC50 values found for the test substance as negative common logarithms, the pIC50 values. The example numbers relate to the subsequent preparation examples.
row,SMILES,IC50
1,"N=C(N)c1ccc(N2CCN(c3ccc(OCC(=O)O)cc3)CC2)cc1 [Example 2a, 4-[4-(4-Amidinophenyl)-1-piperazinyl]-phenoxyacetic acid]",1.58 nM
2,"N=C(N)c1ccc(N2CCN(c3ccc(OCC(=O)O)cc3)CC2)nc1 [Example 6, 4-{4-[2-(5-Amidinopyridyl)]-1-piperazinyl}-phenoxyacetic acid]",1.55 nM
3,"COC(=O)COc1ccc(N2CCN(c3ccc(C(=N)N)cn3)CC2)cc1 [Example 7, Methyl 4-{4-[2-(5-amidinopyridyl)]-1-piperazinyl}phenoxyacetate]",36.3 nM
4,"N=C(N)c1ccc(N2CCN(c3ccc(CCC(=O)O)cc3)CC2)nc1 [Example 10, 3-{4-[4-(2-(5-Amidinopyridyl))-1-piperazinyl]-phenyl}propionic acid]",30.2 nM
5,N=C(N)c1ccc(N2CCN(c3ccc(CCC(=O)O)cc3)CC2)cc1 [Example 12],28.2 nM
